Test results published in US20070161581A1, “Novel aminoglycoside antibiotics effective against methicillin resistant staphylococcus auerus (mrsas)” (priority 2004, published 2007).
In brackets after ≈: the same amount, converted by molar mass.

How the values were obtained:
[1] = system: P. aeruginosa PAO1; test: Antimicrobial activity, MIC against P. aeruginosa PAO1; assay type: cell-based; settings: Pseudomonas aeruginosa, read-out: minimal inhibitory concentration (MIC) against P. aeruginosa PAO1
[2] = system: MRSA-HR; test: Antimicrobial activity, MIC by agar plate dilution method against MRSA-HR; assay type: cell-based, methicillin resistant Staphylococcus aureus; settings: Staphylococcus aureus, read-out: minimal inhibitory concentration (MIC) against MRSA-HR
Description: (§1) The minimal inhibitory concentration (MIC, μg/mL) against MRSAs (MRSA-HR and MRSA-LR) were measured for typical comounds of novel aminoglycoside antibiotic derivatives described in the Examples (Example 1, Example 2, Example 9, Example 13, Example 18, Example 24, Example 44, Example 45, Example 48, Example 49, Example 51, Example 52, Example 53, Example 54, and Example 76) by an agar plate dilution method based on the method based on the JAPANESE SOCIETY OF CHEMOTHERAPY. As a result, the MIC value of the compounds described in the Examples was not more than 8 against MRSA-HR and not more than 4 against MRSA-LR. The same test was carried out for arbekacin described in Japanese Patent Laid-Open No. 164696/1980.

[3] = system: MRSA-LR; test: Antimicrobial activity, MIC by agar plate dilution method against MRSA-LR; assay type: cell-based, methicillin resistant Staphylococcus aureus; settings: Staphylococcus aureus, read-out: minimal inhibitory concentration (MIC) against MRSA-LR
Description: as §1

With `NCC[C@H](O)C(=O)NC1C[C@H](N)C(O[C@H]2OC(CN)C=CC2N)C(N)[C@H]1O[C@H]1OC(CO)[C@H](O)C(N)C1O` (stereo partly drawn) [Example 53, 5-Deoxy-3′,4′-didehydro-4″-epi-5-epiaminoarbekacin] the MIC [1] was at most 4 µg/mL, the MIC [2] was at most 8 µg/mL and the MIC [3] was at most 4 µg/mL.

Work on `NCC[C@H](O)C(=O)NC1C[C@H](N)C(O[C@H]2OC(CN)CCC2N)C(O)[C@H]1O[C@H]1OC(CO)[C@@H](O)C(N)C1O` (some centres unmarked) [Example 13, 5-Epiarbekacin] yielded an MIC [1] of at most 4 µg/mL, an MIC [2] of at most 8 µg/mL and an MIC [3] of at most 4 µg/mL.

Compound `NCCNC1C(O[C@H]2OC(CN)CCC2N)[C@@H](N)CC(NC(=O)[C@@H](O)CCN)[C@@H]1O[C@H]1OC(CO)[C@@H](O)C(N)C1O` (stereo partly drawn) [Example 24, 5-Deoxy-5-epi(2-aminoethyl)aminoarbekacin] has an MIC [1] of at most 4 µg/mL, an MIC [2] of at most 8 µg/mL and an MIC [3] of at most 4 µg/mL.

`NCC[C@H](O)C(=O)NC1C[C@H](N)C(O[C@H]2OC(CN)C=CC2N)C(F)[C@H]1O[C@H]1OC(CO)[C@@H](O)C(N)C1O` (some centres unmarked) [Example 45, 5-Deoxy-3′,4′-didehydro-5-epifluoroarbekacin] showed an MIC [1] of at most 4 µg/mL, an MIC [2] of at most 8 µg/mL and an MIC [3] of at most 4 µg/mL.

For `NCC1CCC(N)[C@@H](OC2C(O)[C@@H](O[C@H]3OC(CO)[C@H](O)C(N)C3O)C(NC(=O)[C@@H](O)CN)C[C@@H]2N)O1` (stereo partly drawn) [Example 9, 1-N-[(S)-(3-amino-2-hydroxypropanoyl)]-5,4″-diepidibekacin], the MIC [1] was at most 4 µg/mL, the MIC [2] was at most 8 µg/mL and the MIC [3] was at most 4 µg/mL.

`NCC[C@H](O)C(=O)NC1C[C@H](N)C(O[C@H]2OC(CN)C=CC2N)C(O)[C@H]1O[C@H]1OC(CO)[C@H](O)C(N)C1O` (some centres unmarked) [Example 51, 3′,4′-Didehydro-5,4″-diepiarbekacin] showed an MIC [1] of at most 4 µg/mL, an MIC [2] of at most 8 µg/mL and an MIC [3] of at most 4 µg/mL.

`NCC[C@H](O)C(=O)NC1C[C@H](N)C(O[C@H]2OC(CN)C=CC2N)C(O)[C@H]1O[C@H]1OC(CO)[C@@H](O)C(N)C1O` (some centres unmarked) [Example 44, 3′,4′-didehydro-5-epiarbekacin] showed an MIC [1] of at most 4 µg/mL, an MIC [2] of at most 8 µg/mL and an MIC [3] of at most 4 µg/mL.

`NCC[C@H](O)C(=O)NC1C[C@H](N)C(O[C@H]2OC(CN)C=CC2N)C(N)[C@H]1O[C@H]1OC(CO)[C@@H](O)C(N)C1O` (some centres unmarked) [Example 48, 5-Deoxy-3′,4′-didehydro-5-epiaminoarbekacin] showed an MIC [1] of at most 4 µg/mL, an MIC [2] of at most 8 µg/mL and an MIC [3] of at most 4 µg/mL.

`NCC[C@H](O)C(=O)NC1C[C@H](N)C(O[C@H]2OC(CN)CCC2N)C(O)[C@H]1O[C@H]1OC(C(O)CN)[C@@H](O)C(N)C1O` (some centres unmarked) [Example 76, 6″-Aminomethylarbekacin] showed an MIC [1] of at most 4 µg/mL, an MIC [2] of at most 8 µg/mL and an MIC [3] of at most 4 µg/mL.

`NCC[C@H](O)C(=O)NC1C[C@H](N)C(O[C@H]2OC(CN)CCC2N)C(F)[C@H]1O[C@H]1OC(CO)[C@H](O)C(N)C1O` (stereo partly drawn) [Example 2, 5-Deoxy-4″-epi-5-epifluoroarbekacin] was tested, and the MIC [1] was at most 4 µg/mL, the MIC [2] was at most 8 µg/mL and the MIC [3] was at most 4 µg/mL.

For `NCC[C@H](O)C(=O)N[C@@H]1C[C@H](N)[C@@H](O[C@H]2O[C@H](CN)CC[C@H]2N)[C@H](O)[C@H]1O[C@H]1O[C@H](CO)[C@@H](O)[C@H](N)[C@H]1O` [arbekacin, (S)-1-N-(4-amino-2-hydroxybutyroyl)dibekacin, reference compound], the MIC [2] was 64 µg/mL (≈ 116 µM) and the MIC [3] was 16 µg/mL (≈ 29 µM).

For `NCC[C@H](O)C(=O)NC1C[C@H](N)C(O[C@H]2OC(CN)CCC2N)C(N)[C@H]1O[C@H]1OC(CO)[C@@H](O)C(N)C1O` (some centres unmarked) [Example 18, 5-Deoxy-5-epiaminoarbekacin], the MIC [1] was at most 4 µg/mL, the MIC [2] was at most 8 µg/mL and the MIC [3] was at most 4 µg/mL.

For `NCC[C@H](O)C(=O)NC1C[C@H](N)C(O[C@H]2OC(CN)C=CC2N)C(O)[C@H]1O[C@H]1OC(CO)CC(N)C1O` (some centres unmarked) [Example 54, 4″-Deoxy-3′,4′-didehydro-5-epiarbekacin], the MIC [1] was at most 4 µg/mL, the MIC [2] was at most 8 µg/mL and the MIC [3] was at most 4 µg/mL.

`NCC[C@H](O)C(=O)NC1C[C@H](N)C(O[C@H]2OC(CN)C=CC2N)C(F)[C@H]1O[C@H]1OC(CO)[C@H](O)C(N)C1O` (stereo partly drawn) [Example 52, 5-Deoxy-3′,4′-didehydro-4″-epi-5-epifluoroarbekacin] showed an MIC [1] of at most 4 µg/mL, an MIC [2] of at most 8 µg/mL and an MIC [3] of at most 4 µg/mL.

In the case of `NCC[C@H](O)C(=O)NC1C[C@H](N)C(O[C@H]2OC(CN)CCC2N)C(O)[C@H]1O[C@H]1OC(CO)[C@H](O)C(N)C1O` (some centres unmarked) [Example 1, 5,4″-diepiarbekacin], the MIC [1] was at most 4 µg/mL, the MIC [2] was at most 8 µg/mL and the MIC [3] was at most 4 µg/mL.
